Experimental data from PubChem BioAssay AID2060897 (Molecular Pharmacology Branch, DTP, NCI, 2025).
pIC50: −log10 of the molar value.

System: 966289-007-R4-J1-PDC complex spheroid viability
Assay: Anticancer human tumor 966289-007-R4-J1-PDC patient-derived pancreatic adenocarcinoma cell line growth inhibition [RAS]
Settings: for pIC50: curve of first compound; for viability, T/C: stronger effect = lower value
Summary of the method: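 Multi-cell-type spheroids: tumor cells plus HUVEC endothelial cells and mesenchymal stem cells. RAS-pathway inhibitors were combined with targeted agents, each dosed in half-log steps down from clinical Cmax, or from 10 microM when Cmax was unknown.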

[1] = second compound 0.000949 µM, first compound 0.0316 µM
[2] = second compound 0.000949 µM, first compound 0.1 µM
[3] = second compound 0.000949 µM, first compound 0.316 µM
[4] = second compound 0.000949 µM, first compound 1 µM
[5] = second compound 0.003 µM, first compound 0.0316 µM
[6] = second compound 0.003 µM, first compound 0.1 µM
[7] = second compound 0.003 µM, first compound 0.316 µM
[8] = second compound 0.003 µM, first compound 1 µM
[9] = second compound 0.00949 µM, first compound 0.0316 µM
[10] = second compound 0.00949 µM, first compound 0.1 µM
[11] = second compound 0.00949 µM, first compound 0.316 µM
[12] = second compound 0.00949 µM, first compound 1 µM
[13] = second compound 0.03 µM, first compound 0.0316 µM
[14] = second compound 0.03 µM, first compound 0.1 µM
[15] = second compound 0.03 µM, first compound 0.316 µM
[16] = second compound 0.03 µM, first compound 1 µM
[17] = second compound 0.0949 µM, first compound 0.0316 µM
[18] = second compound 0.0949 µM, first compound 0.1 µM
[19] = second compound 0.0949 µM, first compound 0.316 µM
[20] = second compound 0.0949 µM, first compound 1 µM
[21] = second compound 0.3 µM, first compound 0.0316 µM
[22] = second compound 0.3 µM, first compound 0.1 µM
[23] = second compound 0.3 µM, first compound 0.316 µM
[24] = second compound 0.3 µM, first compound 1 µM
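Note: spheroids exposed to agents for one week before readout.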
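Throughout, for viability, T/C: percent viability relative to DMSO vehicle control wells as 100%.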

CC(=O)OC12COC1CC(O)C1(C)C(=O)C(O)C3=C(C)C(OC(=O)C(O)C(NC(=O)OC(C)(C)C)c4ccccc4)CC(O)(C(OC(=O)c4ccccc4)C21)C3(C)C (stereo unspecified) + CCn1c(-c2cccnc2C(C)OC)c2c3cc(ccc31)N1CCOC(CC(NC(=O)C(C(C)C)N(C)C(=O)C3(F)CCN(C(=O)C#CC(C)(C)N(C)C)CC3)C(=O)N3CCCC(N3)C(=O)OCC(C)(C)C2)C1
pIC50 (second compound 0.000949 µM): > 7.50 | pIC50 (second compound 0.003 µM): > 7.50 | pIC50 (second compound 0.00949 µM): > 7.50 | pIC50 (second compound 0.03 µM): > 7.50 | pIC50 (second compound 0.0949 µM): > 7.50 | pIC50 (second compound 0.3 µM): > 7.50 | viability, T/C [1]: 5.96% | viability, T/C [2]: 11.7% | viability, T/C [3]: 9.08% | viability, T/C [4]: 14.2% | viability, T/C (second compound 0.000949 µM, first compound 3.16 µM): 38% | viability, T/C (second compound 0.000949 µM, first compound 10 µM): 61.4% | viability, T/C [5]: 5.16% | viability, T/C [6]: 12.8% | viability, T/C [7]: 11% | viability, T/C [8]: 16.3% | viability, T/C (second compound 0.003 µM, first compound 3.16 µM): 32.3% | viability, T/C (second compound 0.003 µM, first compound 10 µM): 52% | viability, T/C [9]: 4.31% | viability, T/C [10]: 11.3% | viability, T/C [11]: 10.9% | viability, T/C [12]: 16.3% | viability, T/C (second compound 0.00949 µM, first compound 3.16 µM): 25.2% | viability, T/C (second compound 0.00949 µM, first compound 10 µM): 59.7% | viability, T/C [13]: 2.88% | viability, T/C [14]: 3.54% | viability, T/C [15]: 8.87% | viability, T/C [16]: 10.5% | viability, T/C (second compound 0.03 µM, first compound 3.16 µM): 20.4% | viability, T/C (second compound 0.03 µM, first compound 10 µM): 49.5% | viability, T/C [17]: 2.26% | viability, T/C [18]: 4.26% | viability, T/C [19]: 3.62% | viability, T/C [20]: 4.99% | viability, T/C (second compound 0.0949 µM, first compound 3.16 µM): 16.5% | viability, T/C (second compound 0.0949 µM, first compound 10 µM): 26.8% | viability, T/C [21]: 1.97% | viability, T/C [22]: 3.21% | viability, T/C [23]: 4.05% | viability, T/C [24]: 4.51% | viability, T/C (second compound 0.3 µM, first compound 3.16 µM): 7.84% | viability, T/C (second compound 0.3 µM, first compound 10 µM): 9.46%

CCc1c2c(nc3ccc(O)cc13)-c1cc3c(c(=O)n1C2)COC(=O)[C@]3(O)CC + CCn1c(-c2cccnc2C(C)OC)c2c3cc(ccc31)N1CCOC(CC(NC(=O)C(C(C)C)N(C)C(=O)C3(F)CCN(C(=O)C#CC(C)(C)N(C)C)CC3)C(=O)N3CCCC(N3)C(=O)OCC(C)(C)C2)C1
pIC50 (second compound 0.000949 µM): 8.75 | pIC50 (second compound 0.003 µM): 8.76 | pIC50 (second compound 0.00949 µM): 8.79 | pIC50 (second compound 0.03 µM): 8.93 | pIC50 (second compound 0.0949 µM): 9.02 | pIC50 (second compound 0.3 µM): > 9.02 | viability, T/C (second compound 0.000949 µM, first compound 0.000949 µM): 103% | viability, T/C (second compound 0.000949 µM, first compound 0.003 µM): 4.09% | viability, T/C (second compound 0.000949 µM, first compound 0.00949 µM): 0.96% | viability, T/C (second compound 0.000949 µM, first compound 0.03 µM): 0.65% | viability, T/C (second compound 0.000949 µM, first compound 0.0949 µM): 0.49% | viability, T/C (second compound 0.000949 µM, first compound 0.3 µM): 0.69% | viability, T/C (second compound 0.003 µM, first compound 0.000949 µM): 99.8% | viability, T/C (second compound 0.003 µM, first compound 0.003 µM): 4.15% | viability, T/C (second compound 0.003 µM, first compound 0.00949 µM): 0.79% | viability, T/C (second compound 0.003 µM, first compound 0.03 µM): 0.63% | viability, T/C (second compound 0.003 µM, first compound 0.0949 µM): 0.64% | viability, T/C (second compound 0.003 µM, first compound 0.3 µM): 0.67% | viability, T/C (second compound 0.00949 µM, first compound 0.000949 µM): 89.8% | viability, T/C (second compound 0.00949 µM, first compound 0.003 µM): 4.69% | viability, T/C (second compound 0.00949 µM, first compound 0.00949 µM): 1.12% | viability, T/C (second compound 0.00949 µM, first compound 0.03 µM): 0.52% | viability, T/C (second compound 0.00949 µM, first compound 0.0949 µM): 0.51% | viability, T/C (second compound 0.00949 µM, first compound 0.3 µM): 0.56% | viability, T/C (second compound 0.03 µM, first compound 0.000949 µM): 60.8% | viability, T/C (second compound 0.03 µM, first compound 0.003 µM): 3.34% | viability, T/C (second compound 0.03 µM, first compound 0.00949 µM): 1.17% | viability, T/C (second compound 0.03 µM, first compound 0.03 µM): 0.76% | viability, T/C (second compound 0.03 µM, first compound 0.0949 µM): 0.58% | viability, T/C (second compound 0.03 µM, first compound 0.3 µM): 0.79% | viability, T/C (second compound 0.0949 µM, first compound 0.000949 µM): 50.5% | viability, T/C (second compound 0.0949 µM, first compound 0.003 µM): 2.92% | viability, T/C (second compound 0.0949 µM, first compound 0.00949 µM): 0.55% | viability, T/C (second compound 0.0949 µM, first compound 0.03 µM): 0.56% | viability, T/C (second compound 0.0949 µM, first compound 0.0949 µM): 0.56% | viability, T/C (second compound 0.0949 µM, first compound 0.3 µM): 0.53% | viability, T/C (second compound 0.3 µM, first compound 0.000949 µM): 18.4% | viability, T/C (second compound 0.3 µM, first compound 0.003 µM): 1.07% | viability, T/C (second compound 0.3 µM, first compound 0.00949 µM): 0.76% | viability, T/C (second compound 0.3 µM, first compound 0.03 µM): 0.59% | viability, T/C (second compound 0.3 µM, first compound 0.0949 µM): 0.68% | viability, T/C (second compound 0.3 µM, first compound 0.3 µM): 0.5%

Nc1ccn(C2OC(CO)C(O)C2(F)F)c(=O)n1 (stereo unspecified) + CCn1c(-c2cccnc2C(C)OC)c2c3cc(ccc31)N1CCOC(CC(NC(=O)C(C(C)C)N(C)C(=O)C3(F)CCN(C(=O)C#CC(C)(C)N(C)C)CC3)C(=O)N3CCCC(N3)C(=O)OCC(C)(C)C2)C1
pIC50 (second compound 0.000949 µM): 8.15 | pIC50 (second compound 0.003 µM): 8.25 | pIC50 (second compound 0.00949 µM): 8.35 | pIC50 (second compound 0.03 µM): 8.37 | pIC50 (second compound 0.0949 µM): 8.33 | pIC50 (second compound 0.3 µM): 8.28 | viability, T/C (second compound 0.000949 µM, first compound 0.00316 µM): 119% | viability, T/C (second compound 0.000949 µM, first compound 0.01 µM): 18.9% | viability, T/C [1]: 1.45% | viability, T/C [2]: 0.78% | viability, T/C [3]: 0.73% | viability, T/C [4]: 0.9% | viability, T/C (second compound 0.003 µM, first compound 0.00316 µM): 87.3% | viability, T/C (second compound 0.003 µM, first compound 0.01 µM): 12.3% | viability, T/C [5]: 1.03% | viability, T/C [6]: 0.84% | viability, T/C [7]: 1.07% | viability, T/C [8]: 1.18% | viability, T/C (second compound 0.00949 µM, first compound 0.00316 µM): 67.6% | viability, T/C (second compound 0.00949 µM, first compound 0.01 µM): 9.69% | viability, T/C [9]: 0.94% | viability, T/C [10]: 0.85% | viability, T/C [11]: 0.87% | viability, T/C [12]: 1.1% | viability, T/C (second compound 0.03 µM, first compound 0.00316 µM): 64% | viability, T/C (second compound 0.03 µM, first compound 0.01 µM): 8.78% | viability, T/C [13]: 0.83% | viability, T/C [14]: 1.03% | viability, T/C [15]: 1.23% | viability, T/C [16]: 0.98% | viability, T/C (second compound 0.0949 µM, first compound 0.00316 µM): 72.2% | viability, T/C (second compound 0.0949 µM, first compound 0.01 µM): 6.25% | viability, T/C [17]: 0.85% | viability, T/C [18]: 0.82% | viability, T/C [19]: 1.11% | viability, T/C [20]: 1.25% | viability, T/C (second compound 0.3 µM, first compound 0.00316 µM): 86.9% | viability, T/C (second compound 0.3 µM, first compound 0.01 µM): 3.9% | viability, T/C [21]: 0.92% | viability, T/C [22]: 0.98% | viability, T/C [23]: 0.91% | viability, T/C [24]: 1.22%
